Test results from ChEMBL document CHEMBL3045948, “Design, synthesis, and potential CNS activity of some new bioactive 1-(4-substituted-phenyl)-3-(4-oxo-2-methyl-4H-quinazolin-3-yl)-urea” (Med Chem Res, 2011).
The source made the active and inactive calls. The rule behind the calls is not given here.

Tests used:
[1] = (§1) Neurotoxicity in ip dosed Mus musculus (mouse) after 4 hr by rotorod test; type: toxicity, organism-based; conditions: in vivo
[2] = system: Mus musculus; experiment: Anticonvulsant activity in ip dosed Mus musculus (mouse) assessed as protection against maximal electroshock-induced seizure measured after 0.5 hr; type: functional; conditions: read-out: MED
[3] = system: Mus musculus; experiment: Anticonvulsant activity in Mus musculus (mouse) assessed as protection against subcutaneous pentyleneterazole-induced seizure at 300 mg/kg, ip measured after 4 hr; type: functional, organism-based; set-up: dose 300 mg/kg
[4] = system: Mus musculus; experiment: Anticonvulsant activity in ip dosed Mus musculus (mouse) assessed as protection against subcutaneous pentyleneterazole-induced seizure measured after 0.5 hr; type: functional; conditions: read-out: MED
[5] = system: Mus musculus; experiment: (§2) Neurotoxicity in ip dosed Mus musculus (mouse) after 0.5 hr by rotorod test; type: toxicity, organism-based; conditions: in vivo, 0.5 h
[6] = system: Mus musculus; experiment: Anticonvulsant activity in Mus musculus (mouse) assessed as protection against maximal electroshock-induced seizure at 300 mg/kg, ip measured after 4 hr; type: functional, organism-based; set-up: dose 300 mg/kg
[7] = system: Mus musculus; experiment: Sedative-hypnotic activity in Mus musculus (mouse) assessed as inhibition of locomotory activity at 100 mg/kg, ip measured after 1 hr by actophotometer test; type: functional; conditions: route intraperitoneal
[8] = system: Rattus norvegicus; experiment: CNS depressant activity in Rattus norvegicus Wistar (rat) assessed as immobility time at 100 mg/kg, ip measured after 60 min by forced swim test (reference value: 45.6 +/- 19.45 to 180.97 +/- 14.15 sec); type: functional; conditions: route intraperitoneal
[9] = as §2; type: toxicity, organism-based; conditions: in vivo
[10] = system: Mus musculus; experiment: Anticonvulsant activity in Mus musculus (mouse) assessed as protection against maximal electroshock-induced seizure at 300 mg/kg, ip measured after 0.5 hr; type: functional, organism-based; set-up: dose 300 mg/kg
[11] = system: Mus musculus; experiment: Anticonvulsant activity in Mus musculus (mouse) assessed as protection against subcutaneous pentyleneterazole-induced seizure at 300 mg/kg, ip measured after 0.5 hr; type: functional, organism-based; set-up: dose 300 mg/kg
[12] = system: Mus musculus; experiment: Anticonvulsant activity in ip dosed Mus musculus (mouse) assessed as protection against maximal electroshock-induced seizure measured after 4 hr; type: functional; conditions: read-out: MED
[13] = system: Mus musculus; experiment: as §1; type: toxicity, organism-based; conditions: in vivo, 4 h
[14] = system: Mus musculus; experiment: Anticonvulsant activity in ip dosed Mus musculus (mouse) assessed as protection against subcutaneous pentyleneterazole-induced seizure measured after 4 hr; type: functional; conditions: read-out: MED

Cc1nc2ccccc2c(=O)n1NC(=O)Nc1ccc(Br)cc1
MTD at 4 h [1]: 300 mg/kg | minimal effective dose [2]: 300 mg/kg | Activity [3]: inactive | minimal effective dose [4]: 300 mg/kg | MTC [5]: 300 mg/kg | Activity [6]: inactive | inhibition in vivo at 100 mg/kg [7]: 51% | Time [8]: 70.63 s

CCCC(CCC)C(=O)[O-].[Na+] [VALPROATE SODIUM]
MTD at 4 h [1]: 300 mg/kg | Activity [3]: inactive | minimal effective dose [4]: 300 mg/kg | MTD at 0.5 h [9]: 300 mg/kg | Activity [10]: inactive | Activity [6]: inactive

Cc1cccc(NC(=O)Nn2c(C)nc3ccccc3c2=O)c1
MTD at 4 h [1]: 300 mg/kg | Activity [3]: inactive | MTD at 0.5 h [9]: 300 mg/kg | Activity [10]: inactive | Activity [11]: inactive | Activity [6]: inactive | inhibition in vivo at 100 mg/kg [7]: 51% | Time [8]: 218.29 s

CCc1ccc(NC(=O)Nn2c(C)nc3ccccc3c2=O)cc1
MTD at 4 h [1]: 300 mg/kg | minimal effective dose [2]: 300 mg/kg | Activity [3]: inactive | minimal effective dose [4]: 300 mg/kg | MTD at 0.5 h [9]: 300 mg/kg | minimal effective dose [12]: 300 mg/kg | inhibition in vivo at 100 mg/kg [7]: 53% | Time [8]: 208.29 s

O=C1NC(=O)C(c2ccccc2)(c2ccccc2)N1 [PHENYTOIN]
MTC [13]: 100 mg/kg | minimal effective dose [2]: 30 mg/kg | Activity [3]: inactive | MTC [5]: 100 mg/kg | minimal effective dose [12]: 30 mg/kg | Activity [11]: inactive | inhibition in vivo at 100 mg/kg [7]: 70%

Cc1ccc(NC(=O)Nn2c(C)nc3ccccc3c2=O)cc1
MTD at 4 h [1]: 300 mg/kg | Activity [3]: inactive | MTD at 0.5 h [9]: 300 mg/kg | Activity [10]: inactive | Activity [11]: inactive | Activity [6]: inactive | inhibition in vivo at 100 mg/kg [7]: 52% | Time [8]: 210.29 s

Cc1nc2ccccc2c(=O)n1NC(=O)Nc1ccc(I)cc1
MTD at 4 h [1]: 300 mg/kg | Activity [3]: inactive | MTD at 0.5 h [9]: 300 mg/kg | Activity [10]: inactive | Activity [11]: inactive | Activity [6]: inactive | inhibition in vivo at 100 mg/kg [7]: 53% | Time [8]: 194.05 s

CCOc1ccc(NC(=O)Nn2c(C)nc3ccccc3c2=O)cc1
MTC [13]: 300 mg/kg | Activity [3]: inactive | MTC [5]: 300 mg/kg | Activity [10]: inactive | Activity [11]: inactive | Activity [6]: inactive | inhibition in vivo at 100 mg/kg [7]: 45% | Time [8]: 198.29 s

Cc1nc2ccccc2c(=O)n1NC(=O)Nc1ccc(Cl)cc1
MTC [13]: 300 mg/kg | minimal effective dose [2]: 300 mg/kg | Activity [3]: inactive | minimal effective dose [4]: 300 mg/kg | MTC [5]: 300 mg/kg | Activity [6]: inactive | inhibition in vivo at 100 mg/kg [7]: 48% | Time [8]: 204.7 s

Cc1nc2ccccc2c(=O)n1NC(=O)Nc1ccccc1
MTD at 4 h [1]: 300 mg/kg | Activity [3]: inactive | MTC [5]: 300 mg/kg | Activity [10]: inactive | Activity [11]: inactive | Activity [6]: inactive | inhibition in vivo at 100 mg/kg [7]: 50% | Time [8]: 130.56 s

Cc1nc2ccccc2c(=O)n1NC(=O)Nc1ccc(F)cc1
MTD at 4 h [1]: 300 mg/kg | Activity [3]: inactive | MTD at 0.5 h [9]: 300 mg/kg | Activity [10]: inactive | Activity [11]: inactive | Activity [6]: inactive | inhibition in vivo at 100 mg/kg [7]: 45% | Time [8]: 188.16 s

Cc1ccccc1NC(=O)Nn1c(C)nc2ccccc2c1=O
MTD at 4 h [1]: 300 mg/kg | Activity [3]: inactive | MTD at 0.5 h [9]: 300 mg/kg | Activity [10]: inactive | Activity [11]: inactive | Activity [6]: inactive | inhibition in vivo at 100 mg/kg [7]: 51% | Time [8]: 226.29 s

CCC1(C)CC(=O)NC1=O (stereo unspecified) [ETHOSUXIMIDE]
Activity [3]: inactive | minimal effective dose [4]: 300 mg/kg | Activity [10]: inactive | Activity [6]: inactive

Cc1nc2ccccc2c(=O)n1NC(=O)Nc1ccc([N+](=O)[O-])cc1
MTD at 4 h [1]: 300 mg/kg | Activity [3]: inactive | MTD at 0.5 h [9]: 300 mg/kg | Activity [10]: inactive | Activity [11]: inactive | Activity [6]: inactive | inhibition in vivo at 100 mg/kg [7]: 40% | Time [8]: 190.29 s

NC(=O)N1c2ccccc2C=Cc2ccccc21 [CARBAMAZEPINE]
MTC [13]: 300 mg/kg | minimal effective dose [2]: 30 mg/kg | minimal effective dose [4]: 100 mg/kg | MTC [5]: 100 mg/kg | minimal effective dose [12]: 100 mg/kg | minimal effective dose [14]: 300 mg/kg | Time [8]: 240.3 s

COc1ccc(NC(=O)Nn2c(C)nc3ccccc3c2=O)cc1
MTD at 4 h [1]: 300 mg/kg | Activity [3]: inactive | MTD at 0.5 h [9]: 300 mg/kg | Activity [10]: inactive | Activity [11]: inactive | Activity [6]: inactive | inhibition in vivo at 100 mg/kg [7]: 42% | Time [8]: 202.29 s

CCC1(c2ccccc2)C(=O)NC(=O)NC1=O [PHENOBARBITAL]
MTC [13]: 300 mg/kg | minimal effective dose [2]: 100 mg/kg | minimal effective dose [4]: 30 mg/kg | MTC [5]: 100 mg/kg | minimal effective dose [12]: 30 mg/kg | minimal effective dose [14]: 300 mg/kg
